Source: patent US20250134907A1, “FUSED DIAZEPINES AS AGONISTS OF THE INSULIN-LIKE 3 (INSL3) PEPTIDE RECEPTOR RXFP2 AND METHODS OF USE THEREOF” (The United States of America,as represented by the …, priority 2022, published 2025)

Legend:
RXFP1 = target: T1, RXFP1 (Homo sapiens, UniProt Q9HBX9); assay: HTRF cAMP counter-screen in HEK-RXFP1 cells; assay type: cell-based; settings: compound 10 μM-[…], IBMX 200 μM
T1 construct: expressed in transfected cells
T1 sequence (Q9HBX9 1-757): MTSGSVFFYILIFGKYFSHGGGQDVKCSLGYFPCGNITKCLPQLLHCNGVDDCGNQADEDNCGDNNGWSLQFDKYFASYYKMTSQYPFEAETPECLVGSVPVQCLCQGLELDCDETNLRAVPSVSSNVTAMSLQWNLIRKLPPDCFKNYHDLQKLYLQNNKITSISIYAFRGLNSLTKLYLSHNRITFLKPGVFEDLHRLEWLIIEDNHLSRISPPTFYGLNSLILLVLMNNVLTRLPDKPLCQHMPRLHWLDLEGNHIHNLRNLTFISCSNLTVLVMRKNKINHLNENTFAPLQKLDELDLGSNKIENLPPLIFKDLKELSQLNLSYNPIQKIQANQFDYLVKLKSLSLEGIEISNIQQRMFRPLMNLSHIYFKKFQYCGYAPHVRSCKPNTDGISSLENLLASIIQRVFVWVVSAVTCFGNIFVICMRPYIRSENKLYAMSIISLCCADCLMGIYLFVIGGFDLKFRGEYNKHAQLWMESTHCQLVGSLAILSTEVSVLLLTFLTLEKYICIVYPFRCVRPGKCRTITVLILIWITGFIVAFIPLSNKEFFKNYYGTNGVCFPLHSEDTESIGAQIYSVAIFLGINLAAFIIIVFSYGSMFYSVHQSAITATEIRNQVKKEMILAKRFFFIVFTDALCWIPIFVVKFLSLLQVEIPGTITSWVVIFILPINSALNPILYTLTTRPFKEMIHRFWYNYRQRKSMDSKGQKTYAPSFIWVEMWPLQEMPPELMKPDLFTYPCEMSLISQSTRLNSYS
Excerpt: HEK293T cells stably transfected with RXFP1 (HEK-RXFP1) were used to test compound specificity towards the RXFP2 receptor using the HTRF Gs dynamic cAMP assay kit (PerkinElmer, Waltham, MA). This is a competitive immunoassay where a time-resolved fluorescence resonance energy (TR-FRET) signal is produced when exogenous d2-labeled cAMP (acceptor) binds to europium cryptate-conjugated anti-cAMP antibody (donor). No signal is produced when endogenous cAMP binds to the antibody. Thus, the TR-FRET signal is inversely proportional to the concentration of cAMP produced by the cells. The HTRF cAMP assay was carried out in the presence of isobutylmethylxanthine phosphodiesterase inhibitor (IBMX) at 200 μM to amplify the cAMP signal. For this assay, cells were seeded in 96-well flat-bottom opaque plates at 30,000 cells/well in 60 μL/well of serum-free DMEM medium and allowed to attach overnight at 37° C., 5% CO2. The next morning, cells were treated with 1 μL/well of compound (10 μM-1.2 nM), 1 μM forskolin, or DMSO vehicle. Cells were also treated with 4 μL of 10 nM Relaxin2 (Peprotech, Cranbury, NJ) as a positive control or vehicle (serum-free DMEM+IBMX). […] Cells were incubated for 1 hour at room temperature, and then the signal was read on a CLARIOstar plate reader (BMG Labtech, Germany). […]

[1] = test system: chimera RXFP2-1 (extracellular domain of RXFP2, transmembrane domain of RXFP1); assay: HTRF cAMP assay in HEK293T cells transiently transfected with chimera RXFP2-1; assay type: cell-based, human
Excerpt: (§1) To further investigate the involvement of the RXFP2 extracellular and transmembrane domains in agonist activation of the receptor, two complementary chimeras were created using the RXFP1 receptor, which is not activated by the agonists of formula (I), to transiently transfect HEK293T cells and measured changes in cAMP induction using the HTRF assay.
(§2) Chimeric receptors were generated by IN-FUSION™ (Takara Bio USA, Inc., San Jose, CA) mutagenesis using full-length human RXFP1 and RXFP2 receptor constructs. Polymerase chain reaction (PCR) was performed using PfuTurbo high-fidelity DNA polymerase (Agilent Technologies, Santa Clara, CA) and overlapping primers with at least 15 bp sequence homology within the fusion site. PCR products were digested with Dpnl restricton enzyme at 37° C. overnight, run on a 0.8% agarose gel and purified using the GENEJET™ Gel extraction kit (Thermo Scientific, Waltham, MA). The purified DNA fragments were then ligated into the BamHI and XhoI pre-digested pcDNA3.1™/Zeo(+) AmpR mammalian expression vector using the In-Fusion HD enzyme premix (Clontech, Mountain View, CA) at 50° C. for 15 minutes, and the resulting product was used to transform Stellar competent cells (Takara Bio USA, Inc., San Jose, CA). The clones were fully sequenced to confirm the correct fusion of both receptor fragments. Chimera RXFP2-1 contained the extracellular domain of RXFP2 and the transmembrane domain of RXFP1. Accordingly, chimera RXFP1-2 contained the extracellular domain of RXFP1 and the transmembrane domain of RXFP2.
(§3) HEK293T cells were seeded in 6-well flat-bottom clear plates at 0.5 million cells/well in 2 mL/well of growth medium (DMEM, 10% FBS, 1× Pen/Strep) and allowed to attach overnight at 37° C. and 5% CO2. The next morning, cells were transfected with 2 μg of plasmid (chimeric receptors, WT RXFP2, or WT RXFP1) and 6 μl of Lipofectamine2000 (Invitrogen, Waltham, MA) in a total volume of 200 μl/well OPTI-MEM™ I (Thermo Fisher, Waltham, MA) reduced serum medium and allowed to incubate an additional 24 hours. The next day, transfected cells were seeded in 96-well flat-bottom opaque plates at 30,000 cells/well in 60 μL/well of serum-free DMEM medium and allowed to attach overnight at 37° C. at 5% CO2. The next morning, cells were treated with 1 μL/well of compound (25 μM-0.25 nM), 2 μM forskolin, or DMSO vehicle. Cells were also treated with 4 μL of positive control INSL3 (100-0.01 nM), Relaxin2 (100-10 nM), or vehicle (serum-free DMEM+IBMX). Plates were incubated for 1 hour at 37° C. and 5% CO2, after which kit cAMP-d2 and anti-cAMP antibody were added as previously described. Cells were incubated for 1 hour at room temperature, and then the signal was read on a CLARIOstar plate reader (BMG Labtech, Germany).

[2] = test system: chimera RXFP1-2 (extracellular domain of RXFP1, transmembrane domain of RXFP2); assay: HTRF cAMP assay in HEK293T cells transiently transfected with chimera RXFP1-2; assay type: cell-based, human
Excerpt: as §1, §2, §3

[3] = test system: trabecular bone of L3 vertebrae; assay: Bone anabolic study, microCT of L3 vertebrae; assay type: in vivo, C57BL/6J female mice; settings: 10 mg/kg oral gavage every other day, 8 weeks, vs vehicle

RXFP1 cAMP response (activation of RXFP1) (RXFP1) | Compound | cAMP response of chimera RXFP2-1 [1] | cAMP response of chimera RXFP1-2 [2] | bone volume per tissue volume (BV/TV) [3] | trabecular number (Tb.N) [3] | trabecular separation (Tb.Sp) [3] | trabecular thickness (Tb.Th) [3]
do not activate | O=C1Nc2ccc(-c3cccc(C(F)(F)F)c3)cc2C(=O)N2CCN(C(=O)COc3ccc(OC(F)(F)F)cc3Br)C[C@@H]12 [Example 123, (S)-2-(2-(2-bromo-4-(trifluoromethoxy)phenoxy)acetyl)-8-(3-(trifluoromethyl)phenyl)-1,3,4,12a-tetrahydrobenzo[e]pyrazino[1,2-a][1,4]diazepine-6,12 (2H, 11H)-dione] | – | – | – | – | – | –
do not activate | O=C1Nc2ccc(-c3cc(C(F)(F)F)cc(C(F)(F)F)c3)cc2C(=O)N2CCN(C(=O)COc3ccc(OC(F)(F)F)cc3Br)C[C@@H]12 [Example 158, (S)-8-(3,5-Bis(trifluoromethyl)phenyl)-2-(2-(2-bromo-4-(trifluoromethoxy)phenoxy)acetyl)-1,3,4,12a-tetrahydrobenzo[e]pyrazino[1,2-a][1,4]diazepine-6,12 (2H, 11H)-dione] | – | – | – | – | – | –
– | O=C1Nc2ccc(-c3cc(C(F)(F)F)cc(C(F)(F)F)c3)cc2C(=O)N2CCN(C(=O)COc3ccc(OC(F)(F)F)cc3I)C[C@@H]12 [Example 187, (S)-8-(3,5-bis(trifluoromethyl)phenyl)-2-(2-(2-iodo-4-(trifluoromethoxy)phenoxy)acetyl)-1,3,4,12a-tetrahydrobenzo[e]pyrazino[1,2-a][1,4]diazepine-6,12 (2H, 11H)-dione] | no response | levels comparable to WT RXFP2 | small non-significant improvement | significant increase | small non-significant improvement | significant increase
